From paper PMC6380468, “Investigations on small molecule inhibitors targeting the histone H3K4 tri-methyllysine binding PHD-finger of JmjC histone demethylases” (Bioorganic & Medicinal Chemistry, 2018)

Columns and labels:
KDM5A_c1 (M1-L801) = target: T1, KDM5A_c1 (M1-L801) (Homo sapiens, UniProt P29375); test: MALDI-TOF MS H3K4me3 demethylation assay, KDM5A_c1; type: biochemical; details: average ± StdDev of n = 2, read-out: IC50, inhibition of H3K4me3 demethylation activity, KDM5A_c1
T1 construct: made in house
T1 sequence (P29375 1-801): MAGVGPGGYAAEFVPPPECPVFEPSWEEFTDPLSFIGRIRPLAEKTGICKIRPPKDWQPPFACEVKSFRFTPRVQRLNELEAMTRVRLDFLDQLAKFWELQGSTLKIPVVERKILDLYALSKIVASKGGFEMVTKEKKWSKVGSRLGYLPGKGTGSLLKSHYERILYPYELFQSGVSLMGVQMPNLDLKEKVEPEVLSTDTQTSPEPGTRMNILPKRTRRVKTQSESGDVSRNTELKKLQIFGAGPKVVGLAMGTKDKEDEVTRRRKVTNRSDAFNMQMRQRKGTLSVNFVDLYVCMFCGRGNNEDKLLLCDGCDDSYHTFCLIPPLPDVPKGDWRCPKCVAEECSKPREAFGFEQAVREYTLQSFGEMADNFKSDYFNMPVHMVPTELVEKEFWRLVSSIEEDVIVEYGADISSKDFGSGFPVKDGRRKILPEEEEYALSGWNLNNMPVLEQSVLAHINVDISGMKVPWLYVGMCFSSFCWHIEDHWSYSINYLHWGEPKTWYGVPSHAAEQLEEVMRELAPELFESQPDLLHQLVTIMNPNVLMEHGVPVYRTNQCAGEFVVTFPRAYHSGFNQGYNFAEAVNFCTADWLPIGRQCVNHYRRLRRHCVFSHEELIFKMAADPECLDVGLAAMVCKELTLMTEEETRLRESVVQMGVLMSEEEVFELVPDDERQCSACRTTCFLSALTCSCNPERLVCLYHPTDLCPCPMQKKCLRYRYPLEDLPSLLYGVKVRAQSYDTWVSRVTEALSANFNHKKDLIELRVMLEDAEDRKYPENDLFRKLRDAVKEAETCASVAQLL
Protocol: Two catalytically active constructs of KDM5A were employed, KDM5A_c1 (M1-L801) and KDM5A_c2 (ΔARID/PHD1, P13-S744 with L88-G353 (ARID/PHD1) replaced with a GGGG linker) and both KDM5A_c1 and KDM5A_c2 constructs lack the PHD2 and PHD3. […] A MALDI-TOF MS assay was used to measure the activity of H3K4me3 demethylation in the presence of inhibitors (Table 2, Fig. 3C and D).
The KDM5A mixture (5 µL, KDM5A-c1: 1.0 µM or KDM5A-c2: 0.5 µM) was pre-incubated with 100 nL inhibitors (in DMSO) for 10 min. […] The mixture was quenched using formic acid (5 µL, 1 v/v% in MQ) after 4 minutes (KDM5A-c1) or 3 minutes (KDM5A-c2). The stopped reaction (1 µL) was mixed with […] (CHCA) MALDI matrix (saturated solution in TFA (0.1%) in MilliQ water and trifluoroacetic acid (0.1%) acetonitrile (1:1)) at 1:1 ratio (2 µL), air dried and analysed using Bruker microflex MALDI-TOF controlled with FlexControl. The data were further processed using FlexAnalysis and excel.

KDM7B (PHD-JmjC) [1] = target: T2, KDM7B (PHD-JmjC) (Homo sapiens, UniProt Q9UPP1); test: MALDI-TOF MS H3K9me2 demethylation assay, KDM7B(PHD-JmjC); type: biochemical; details: at 100 µM; MALDI-TOF MS; substrate H3(1–5)K4me3K9me2; read-out: KDM7B (PHD-JmjC) (Catalytic), inhibition of H3K9me2 demethylation
T2 construct: A dual-domain construct of KDM7A/B(PHD-JmjC), consisting of a JmjC domain in addition to the PHD-finger; His; made in house
Protocol: H3(1–15)K9me2 and H3(1–5)K4me3K9me2 were used as substrates for KDM7A(PHD-JmjC) and KDM7B(PHD-JmjC), respectively. […] For KDM7B(PHD-JmjC), inhibition was most pronounced for 1a (95%) and 2a (89%) whilst others inhibited more weakly (Table 4).
For KDM7(PHD-JmjC) assays, 2.5 µM enzyme was used, with 5 µM H3(1-15)K9me2 peptide substrate for KDM7A or H3(1-15)K4me3K9me2 for KDM7B. Final concentrations were: 1mM ascorbate, 50 µM (NH4)2Fe(II)(SO4)2 and 200 µM 2OG. The mixture was quenched using formic acid after 10 minutes (KDM7A) or 5 minutes (KDM7B).

KDM7A(PHD) = target: T3, KDM7A(PHD) (Homo sapiens, UniProt Q6ZMT4); test: AlphaScreen displacement of H3K4me3-Bn from His-KDM7A(PHD); type: binding; details: AlphaScreen; 6.25 nM KDM7A(PHD) and 25 nM peptide; n ≥ 3; read-out: IC50 for displacement of H3K4me3-Bn from His-KDM7A(PHD)
T3 construct: made in house
T3 sequence (Q6ZMT4 37-88 limits assumed): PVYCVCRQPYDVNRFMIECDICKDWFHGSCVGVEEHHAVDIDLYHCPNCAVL
Protocol: (§1) For peptide displacement assays, 5 µL of the inhibitor dilution series (at a concentration of 4% DMSO in AlphaScreen assay buffer) was pre-incubated with 5 µL of the protein at RT for 15 minutes. Peptide solution (5 µL) was added and incubated for 30 minutes at RT, followed by the addition of 5 µL of a mixture of AlphaScreen Streptavidin donor beads and Nickel Chelate acceptor beads in AlphaScreen assay buffer (20 µg/mL final). The contents were incubated for 60-120 minutes at RT in the dark, followed by measurement of luminescence on a BMG Labtech Pherastar plate reader (Software Ver. 5.30 R3, Firmware Ver. 1.21). The data was plotted in Prism Ver 7.01 (GraphPad Software, Inc.) and fitted to a Log(inhibitor) v/s response – variable slope model in order to obtain IC50 values.

KDM7A (PHD-JmjC) = KDM7A (PHD-JmjC) (Homo sapiens, UniProt Q6ZMT4); test: AlphaScreen displacement of H3K4me3-Bn from His-KDM7A(PHD-JmjC); type: binding; details: AlphaScreen displacement of H3K4me3-Bn; n = 3; NI = No inhibition seen at 100 μM; read-out: IC50 KDM7A (PHD-JmjC) (Displacement)
Protocol: (§2) A dual-domain construct of KDM7A/B(PHD-JmjC), consisting of a JmjC domain in addition to the PHD-finger (Fig. 1B), was used to test for allosteric inhibition through binding at the PHD-finger.
as §1

KDM7B (PHD-JmjC) [2] = target: T2, KDM7B (PHD-JmjC); test: AlphaScreen displacement of H3K4me3-Bn from His-KDM7B(PHD-JmjC); type: binding; details: AlphaScreen displacement of H3K4me3-Bn; n = 3; NI = No inhibition seen at 100 μM; read-out: IC50 KDM7B (PHD-JmjC) (Displacement)
Protocol: as §2, §1

T2 sequence (Q9UPP1 37-483 limits assumed): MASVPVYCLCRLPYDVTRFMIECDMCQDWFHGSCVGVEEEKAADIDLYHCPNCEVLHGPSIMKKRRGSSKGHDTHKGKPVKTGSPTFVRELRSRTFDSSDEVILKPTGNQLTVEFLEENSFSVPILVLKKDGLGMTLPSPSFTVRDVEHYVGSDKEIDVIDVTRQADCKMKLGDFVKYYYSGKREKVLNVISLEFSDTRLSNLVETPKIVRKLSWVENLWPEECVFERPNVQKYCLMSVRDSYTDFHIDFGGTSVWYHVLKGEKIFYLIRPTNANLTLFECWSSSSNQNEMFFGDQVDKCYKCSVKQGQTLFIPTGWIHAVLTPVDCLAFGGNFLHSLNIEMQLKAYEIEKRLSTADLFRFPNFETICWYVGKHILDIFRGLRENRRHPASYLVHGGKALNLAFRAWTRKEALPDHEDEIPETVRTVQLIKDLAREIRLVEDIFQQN
KDM7A (PHD-JmjC), sequence (Q6ZMT4 37-386 limits assumed): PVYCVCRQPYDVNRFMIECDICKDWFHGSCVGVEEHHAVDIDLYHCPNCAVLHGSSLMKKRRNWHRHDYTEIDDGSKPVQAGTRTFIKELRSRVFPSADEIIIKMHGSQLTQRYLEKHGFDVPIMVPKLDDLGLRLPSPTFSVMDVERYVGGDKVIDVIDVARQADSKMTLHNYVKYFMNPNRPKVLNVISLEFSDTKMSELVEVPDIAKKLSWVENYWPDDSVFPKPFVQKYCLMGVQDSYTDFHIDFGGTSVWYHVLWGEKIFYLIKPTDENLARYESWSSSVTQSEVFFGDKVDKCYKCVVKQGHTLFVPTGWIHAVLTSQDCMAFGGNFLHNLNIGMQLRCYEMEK

IC50 (KDM5A_c1 (M1-L801)) | inhibition at 100 µM (KDM7B (PHD-JmjC) [1]) | IC50 (KDM7A(PHD)) | IC50 (KDM7A (PHD-JmjC)) | IC50 (KDM7B (PHD-JmjC) [2]) | SMILES
> 1000 µM | 95% | 333 ± 39 µM | 295 ± 48 µM | > 100 µM | CCCCc1oc2ccccc2c1C(=O)c1ccc(OCCCN(C)C)cc1 [Compound 1a, (2-Butylbenzofuran-3-yl)(4-(3-(dimethylamino)propoxy)phenyl)methanone]
80 ± 29 µM | 89% | 86 ± 9 µM | 149 ± 32 µM | 120 ± 32 µM | CCCCc1oc2ccccc2c1C(=O)c1ccc(OCCC[N+](C)(C)C)cc1.[I-] [Compound 2a, 3-(4-(2-Butylbenzofuran-3-carbonyl)phenoxy)-N,N,N-trimethylpropan-1-aminium iodide]
